{"source": "patent US20130180014A1", "about": "“Pyridine Compounds for Controlling Invertebrate Pests III” (BASF SE, priority 2010, published 2013)", "format_in_all_cases": "in vivo", "key": {"Myzus persicae [1]": {"test_system": "Myzus persicae", "test": "Green peach aphid, systemic, artificial diet under membrane in 96-well plate", "settings": "72 h, 3 days, in comparison with untreated controls", "description": "For evaluating control of green peach aphid (Myzus persicae) through systemic means the test unit consisted of 96-well-microtiter plates containing liquid artificial diet under an artificial membrane.\nThe compounds were formulated using a solution containing 75% vol/vol water and 25% vol/vol DMSO. Different concentrations of formulated compounds were pipetted into the aphid diet, using a custom built pipetter, at two replications. After application, 5 to 8 adult aphids were placed on the artificial membrane inside the microtiter plate wells. The aphids were then allowed to suck on the treated aphid diet and incubated at about 23+1° C. and about 50+5% relative humidity for 3 days. Aphid mortality and fecundity was then visually assessed."}, "Megoura viciae": {"test_system": "Megoura viciae", "test": "Vetch aphid, bean leaf disk in microtiterplate", "settings": "foliar, 144 h, test solution 2500 mg/L, leaf disks sprayed with 2.5 μl, 6 days", "method": "The active compounds were formulated in 1:3 (vol/vol) DMSO:water with different concentrations of formulated compounds.\nBean leaf disks were placed into microtiterplates filled with 0.8% agar-agar and 2.5 ppm OPUS™. The leaf disks were sprayed with 2.5 μl of the test solution and 5 to 8 adult aphids were placed into the microtiterplates which were then closed and kept at 23±1° C. and 50±5% relative humidity under fluorescent light for 6 days. Mortality was assessed on the basis of vital, reproduced aphids. Aphid mortality and fecundity was then visually assessed."}, "Aphis gossypii": {"test_system": "Aphis gossypii", "test": "Cotton aphid, mixed life stages, method a) cotyledon dip", "settings": "cotton cotyledons dipped, in comparison with untreated controls", "description": "(§1) The active compounds were formulated in 50:50 (vol/vol) acetone:water and 100 ppm Kinetica™ surfactant.\nCotton plants at the cotyledon stage (one plant per pot) were infested by placing a heavily infested leaf from the main colony on top of each cotyledon. The aphids were allowed to transfer to the host plant overnight, and the leaf used to transfer the aphids was removed. The cotyledons were dipped in the test solution and allowed to dry. After days, mortality counts were made."}, "Myzus persicae [2]": {"test_system": "Myzus persicae", "test": "Green peach aphid, mixed life stages, method a) pepper leaf dip", "settings": "foliar, 120 h, pepper leaves dipped, after 5 days, in comparison with untreated controls", "description": "as §1\nPepper plants in the 2nd leaf-pair stage (variety ‘California Wonder’) were infested with approximately 40 laboratory-reared aphids by placing infested leaf sections on top of the test plants. The leaf sections were removed after 24 hr. The leaves of the intact plants were dipped into gradient solutions of the test compound and allowed to dry. Test plants were maintained under fluorescent light (24 hour photoperiod) at about 25° C. and 20-40% relative humidity. Aphid mortality on the treated plants, relative to mortality on check plants, was determined after 5 days."}, "Aphis craccivora": {"test_system": "Aphis craccivora", "test": "Cowpea aphid, spray on potted cowpea plants", "settings": "cowpea plants sprayed, assessed after 24, 72 and 120 hours, in comparison with untreated controls", "method": "The active compounds were formulated in 50:50 (vol/vol) acetone:water. The test solution was prepared at the day of use.\nPotted cowpea plants colonized with 100-150 aphids of various stages were sprayed after the pest population had been recorded. Population reduction was assesed after 24, 72, and 120 hours."}}}
{"smiles": "O=C(Nc1cccnc1)c1cncc(C(F)(F)F)c1", "note": "[Example 18, N-Pyridin-3-yl-5-trifluoromethylnicotinamide]", "values": [{"measurement": "mortality at 2500 ppm", "setting": "Myzus persicae [1]", "value": 100, "unit": "%"}, {"measurement": "mortality at 2500 µg/mL", "setting": "Megoura viciae", "value": "≥ 90", "unit": "%"}, {"measurement": "mortality at 300 ppm", "setting": "Aphis gossypii", "value": "≥ 75", "unit": "%"}, {"measurement": "mortality at 300 ppm", "setting": "Myzus persicae [2]", "value": "≥ 90", "unit": "%"}, {"measurement": "mortality at 300 ppm", "setting": "Aphis craccivora", "value": "≥ 90", "unit": "%"}]}
